According to US10208059B2, “Heterocyclic modulators of HIF activity for treatment of disease” (Board of Regents, University of Texas System, priority 2012, dated 2019):
“Also recorded” adds a separate entry of the source.

Key:
293T-HRE-GFP-luc cells = assay: Cell-based reporter assay for IC50 determinations; details: hypoxia 6 hrs (1% O2), luminescence, read-out: IC50 Classification
Procedure, shortened: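 Cells carrying an HRE-driven GFP-luciferase reporter, seeded at 12,000/well and held overnight, then given 1:3 serial compound dilutions (DMSO, further diluted 1:50 in medium). After 30 min in normoxia, plates held 6 h in hypoxia (1% O2, 37 °C); luciferase luminescence read, IC50 by four-parameter logistic fit.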

NB-1 cells = assay: Neuroblastoma cellular assay, cell numbers; format: cell-based; details: various concentrations
Source text: (§1) NB-1, Gli56, and D423 cell lines are deleted for ENO-1 (GLI56 and D423) or PGD, which renders them with reduced glycolytic capacity (Muller, F. et al., Nature, 2012, 488, 337-42).

D423 cells = assay: Glioblastoma cellular assay, cell numbers; format: cell-based; details: various concentrations
Source text: as §1

Gli56 cells = assay: Glioblastoma cellular assay, cell numbers; format: cell-based; details: various concentrations
Source text: as §1

H460 xenografts = assay: H460 non-small cell lung cancer xenograft model; format: in vivo, mice
Protocol: H460 cells were implanted subcutaneously in CD-1 nude mice and treated with 150 mpk qdx14 PO of the compound of Example 2 delivered by oral gavage for 14 days. Animals were randomized into study groups and the study initiated when the average tumor volume was 400 mm^3. During treatment, tumor volume was measured three times per week to determine tumor growth over the course of the study (FIG. 6). Nine tumor bearing mice were included in each group. On day 15, 3 hours prior to take down, hypoxyprobe (Hypoxyprobe, Inc. cat # HP3) was injected into mice. Tumor sections were stained (dark areas) for the level of hypoxia utilizing an anti-hypoxyprobe antibody and standard IHC methods (FIG. 7). The same tumors were stained for the expression of HIF regulated gene carbonic anhydrase IX (CA9) using standard IHC methods (FIG. 8).

Row | Structure (SMILES) | IC50 (293T-HRE-GFP-luc cells) [nM] | other results
1 | Cc1nc(-c2nc(-c3ccc(OC(F)(F)F)cc3)no2)nn1Cc1ccnc(N2CCN(C)CC2)c1 [Example 2, 5-(5-Methyl-1-((2-(4-methylpiperazin-1-yl)pyridin-4-yl)methyl)-1H-1,2,4-triazol-3-yl)-3-(4-(trifluoromethoxy)phenyl)-1,2,4-oxadiazole] | < 100 | cell death in NB-1 cells (NB-1 cells): readily apparent; number of viable NB-1 cells (NB-1 cells): significantly reduced; also recorded: reduced number of viable cells; number of viable D423 cells (D423 cells): significantly reduced; also recorded: reduced number of viable cells; cell death in Gli56 cells (Gli56 cells): readily apparent; number of viable Gli56 cells (Gli56 cells): significantly reduced; tumor growth of H460 xenografts (H460 xenografts; 150 mg/kg daily oral for 14 days, CD-1 nude mice): inhibited the growth; also recorded: reduces the tumor growth; level of HIF regulated gene carbonic anhydrase IX (CAIX/CA9) in H460 xenografts (IHC) (H460 xenografts; 150 mg/kg daily oral, day 15): elimination of hypoxia and CA9 protein expression; also recorded: reduce the level of CAIX; level of hypoxia in H460 xenografts (hypoxyprobe IHC) (H460 xenografts; 150 mg/kg daily oral, day 15): elimination of hypoxia; also recorded: reduce the level of hypoxia
2 | Cc1nc(-c2nc(-c3ccc(OC(F)(F)F)cc3)cs2)nn1Cc1cccc(N2CCN(C)CC2)c1 [Example 148, 1-methyl-4-{3-[(5-methyl-3-{4-[4-(trifluoromethoxy)phenyl]-1,3-thiazol-2-yl}-1H-1,2,4-triazol-1-yl)methyl]phenyl}piperazine] | < 100 | 
3 | Cc1ccc(Cn2nc(-c3nc(-c4ccc(OC(F)(F)F)cc4)cs3)nc2C)cc1 [Example 149, 5-methyl-1-[(4-methylphenyl)methyl]-3-{4-[4-(trifluoromethoxy)phenyl]-1,3-thiazol-2-yl}-1H-1,2,4-triazole] | < 100 | 
4 | COC(=O)c1cccc(Cn2nc(-c3nc(-c4ccc(OC(F)(F)F)cc4)cs3)nc2C)c1 [Example 150, methyl 3-[(5-methyl-3-{4-[4-(trifluoromethoxy)phenyl]-1,3-thiazol-2-yl}-1H-1,2,4-triazol-1-yl)methyl]benzoate] | 100 to 1000 | 
5 | Cc1nc(-c2nc(-c3ccc(OC(F)(F)F)cc3)cs2)nn1Cc1cccc(O)c1 [Example 151, 3-[(5-methyl-3-{4-[4-(trifluoromethoxy)phenyl]-1,3-thiazol-2-yl}-1H-1,2,4-triazol-1-yl)methyl]phenol] | 100 to 1000 | 
6 | Cc1nc(-c2ncc(-c3ccc(OC(F)(F)F)cc3)o2)nn1Cc1cccc(N2CCN(C)CC2)c1 [Example 152, 1-methyl-4-{3-[(5-methyl-3-{5-[4-(trifluoromethoxy)phenyl]-1,3-oxazol-2-yl}-1H-1,2,4-triazol-1-yl)methyl]phenyl}piperazine] | < 100 | 
7 | Cc1nc(-c2ncc(-c3ccc(OC(F)(F)F)cc3)o2)nn1Cc1cccc(S(=O)(=O)N2CCOCC2)c1 [Example 153, 4-{3-[(5-methyl-3-{5-[4-(trifluoromethoxy)phenyl]-1,3-oxazol-2-yl}-1H-1,2,4-triazol-1-yl)methyl]benzenesulfonyl}morpholine] | 100 to 1000 | 
8 | Cc1ccc(Cn2nc(-c3ncc(-c4ccc(OC(F)(F)F)cc4)o3)nc2C)cc1 [Example 154, 5-methyl-1-[(4-methylphenyl)methyl]-3-{5-[4-(trifluoromethoxy)phenyl]-1,3-oxazol-2-yl}-1H-1,2,4-triazole] | 100 to 1000 | 
9 | COC(=O)c1cccc(Cn2nc(-c3ncc(-c4ccc(OC(F)(F)F)cc4)o3)nc2C)c1 [Example 155, methyl 3-[(5-methyl-3-{5-[4-(trifluoromethoxy)phenyl]-1,3-oxazol-2-yl}-1H-1,2,4-triazol-1-yl)methyl]benzoate] | 100 to 1000 | 
10 | Cc1nc(-c2ncc(-c3ccc(OC(F)(F)F)cc3)o2)nn1Cc1cccc(O)c1 [Example 156, 3-[(5-methyl-3-{5-[4-(trifluoromethoxy)phenyl]-1,3-oxazol-2-yl}-1H-1,2,4-triazol-1-yl)methyl]phenol] | 1000 to 10000 | 
11 | Cc1nc(-c2ncc(-c3ccc(OC(F)(F)F)cc3)o2)nn1Cc1cccc(C(=O)N(C)C)c1 [Example 157, N,N-dimethyl-3-[(5-methyl-3-{5-[4-(trifluoromethoxy)phenyl]-1,3-oxazol-2-yl}-1H-1,2,4-triazol-1-yl)methyl]benzamide] | 100 to 1000 | 
12 | COCCOc1cccc(Cn2nc(-c3ncc(-c4ccc(OC(F)(F)F)cc4)o3)nc2C)c1 [Example 158, l-{[3-(2-methoxyethoxy)phenyl]methyl}-5-methyl-3-{5-[4-(trifluoromethoxy)phenyl]-1,3-oxazol-2-yl}-1H-1,2,4-triazole] | < 100 | 
13 | Cc1nc(-c2ncc(-c3ccc(OC(F)(F)F)cc3)o2)nn1Cc1cccc(S(C)(=O)=O)c1 [Example 159, 1-[(3-methanesulfonylphenyl)methyl]-5-methyl-3-{5-[4-(trifluoromethoxy)phenyl]-1,3-oxazol-2-yl}-1H-1,2,4-triazole] | 100 to 1000 | 
14 | Cc1nc(-c2cc(-c3ccc(OC(F)(F)F)cc3)no2)nn1Cc1cccc(N2CCN(C)CC2)c1 [Example 160, 1-methyl-4-{3-[(5-methyl-3-{3-[4-(trifluoromethoxy)phenyl]-1,2-oxazol-5-yl}-1H-1,2,4-triazol-1-yl)methyl]phenyl}piperazine] | < 100 | 
15 | Cc1nc(-c2cc(-c3ccc(OC(F)(F)F)cc3)no2)nn1Cc1ccnc(N2CCN(C)CC2)c1 [Example 161, 1-methyl-4-{4-[(5-methyl-3-{3-[4-(trifluoromethoxy)phenyl]-1,2-oxazol-5-yl}-1H-1,2,4-triazol-1-yl)methyl]pyridin-2-yl}piperazine] | < 100 | 
16 | Cc1nc(-c2cc(-c3ccc(OC(F)(F)F)cc3)on2)nn1Cc1cccc(N2CCN(C)CC2)c1 [Example 162, 1-methyl-4-{3-[(5-methyl-3-{5-[4-(trifluoromethoxy)phenyl]-1,2-oxazol-3-yl}-1H-1,2,4-triazol-1-yl)methyl]phenyl}piperazine] | < 100 | 
17 | Cc1nc(-c2cc(-c3ccc(OC(F)(F)F)cc3)on2)nn1Cc1ccnc(N2CCN(C)CC2)c1 [Example 163, 1-methyl-4-{4-[(5-methyl-3-{5-[4-(trifluoromethoxy)phenyl]-1,2-oxazol-3-yl}-1H-1,2,4-triazol-1-yl)methyl]pyridin-2-yl}piperazine] | < 100 | 
